We go through eight molecules from ChEMBL document CHEMBL1201862, “PubChem BioAssay data set” (2004).

As a reminder, the GI50 is the concentration giving 50% growth inhibition.

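Interpolation was linear, between the two tested concentrations surrounding the appropriate level; five concentrations were tested over 48 hours in 96-well plates. At the GI50, growth is halved.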 Calls of active or inactive are those of the source. Cut-off read from the data, not from the text of the source: active = GI50 up to about 1.1 µM and inactive = higher.

Some test systems named below: A498; CCRF-CEM; EKVX; HCC 2998; HCT-116; HL-60; IGROV-1; K562; MDA-N; OVCAR-4; OVCAR-5; PC-3; RPMI-8226; SF-268; SF-295; SK-OV-3; SW-620; LOX IMVI; SK-MEL-2.
Assay in all cases: DTP human tumour cell line panel, 48 h

As to `CCC(=O)C1(c2ccccc2)CCN(C)CC1`, the GI50 in the assay on A498, with CCRF-CEM, with EKVX, in the assay with HCC 2998, with HCT-116 and with HL-60 was > 100 µM (inactive) throughout. For the same molecule, the GI50 with IGROV-1, in the assay on K562, in the assay on MDA-N, in the assay with OVCAR-4, in the assay with OVCAR-5 and in the assay on PC-3 was > 100 µM (inactive) in each case. Moreover, the GI50 with RPMI-8226, with SF-268, with SF-295, in the assay on SK-OV-3 and in the assay on SW-620 was > 100 µM (inactive) each time.

On to `CCOC(=O)/C1=C(\C)N(Cc2ccccc2)C(=O)c2ccccc2C(=O)c2c(OC(C)=O)ccc(OC(C)=O)c21`, for which the GI50 is > 100 µM (inactive) in the assay on A498; 40.8 µM (inactive) with CCRF-CEM; 18.3 µM (inactive) in the assay on EKVX; 7.6 µM (inactive) in the assay on HCC 2998; 29.9 µM (inactive) in the assay with HL-60; 21.9 µM (inactive) in the assay on IGROV-1. For the same molecule, the GI50 in the assay on K562 was 42.9 µM (inactive); with LOX IMVI it was > 100 µM (inactive); in the assay on MDA-N, 36 µM (inactive); with OVCAR-4, 24.9 µM (inactive); in the assay with OVCAR-5, 41.7 µM (inactive); in the assay with RPMI-8226, 18.9 µM (inactive). For the same molecule, the GI50 was 43.6 µM (inactive) with SF-268; 29 µM (inactive) in the assay with SF-295; 97.5 µM (inactive) in the assay on SK-MEL-2; > 100 µM (inactive) in the assay with SK-OV-3; 65.3 µM (inactive) in the assay on SW-620.

Consider `O=c1ss/c(=N\c2ccccc2)n1-c1ccccc1`, for which the GI50 is > 100 µM (inactive) with A498; 4.14 µM (inactive) with CCRF-CEM; 33.7 µM (inactive) in the assay on EKVX; 36.8 µM (inactive) with HCC 2998; 31.1 µM (inactive) in the assay with HL-60; 21.8 µM (inactive) in the assay with K562. Besides, the GI50 was 19.3 µM (inactive) in the assay on LOX IMVI; 34.5 µM (inactive) in the assay on MDA-N; 17 µM (inactive) in the assay on OVCAR-4; 40.2 µM (inactive) in the assay on OVCAR-5; 19.5 µM (inactive) in the assay on PC-3; 21.4 µM (inactive) in the assay on RPMI-8226. Besides, the GI50 in the assay on SF-268 is 18.5 µM (inactive); in the assay on SF-295, > 100 µM (inactive); in the assay on SK-MEL-2, 23.2 µM (inactive); with SK-OV-3, > 100 µM (inactive); with SW-620 it was 24.4 µM (inactive).

As for `O=C1C(Cl)=C(Cl)C(=O)C(CCNc2nccs2)=C1Cl`, the GI50 in the assay on CCRF-CEM is 0.335 µM (active); in the assay with EKVX, 24.5 µM (inactive); in the assay with HCC 2998, > 100 µM (inactive); in the assay with HCT-116, 28.2 µM (inactive); with HL-60 it was 43.7 µM (inactive); with IGROV-1, 14.8 µM (inactive). Also, the GI50 was 22.3 µM (inactive) with K562; > 100 µM (inactive) with OVCAR-4; 44.3 µM (inactive) in the assay on OVCAR-5; 18.5 µM (inactive) with PC-3; 38.6 µM (inactive) in the assay on SF-268; > 100 µM (inactive) with SF-295. Further, the results for the GI50 with SK-MEL-2, in the assay on SK-OV-3 and in the assay with SW-620 were 27.6 µM (inactive), > 100 µM (inactive) and 29.4 µM (inactive), respectively.

For `CSc1nc(C)c2c(n1)N(c1ccc(Cl)cc1)CC2`, the GI50 in the assay with A498, in the assay with CCRF-CEM, in the assay with EKVX, with HCC 2998, with HCT-116 and in the assay on IGROV-1 was > 100 µM (inactive) throughout. The GI50 with K562 was 88.3 µM (inactive); in the assay on LOX IMVI it was > 100 µM (inactive); with MDA-N, > 100 µM (inactive); in the assay with OVCAR-4, 61.4 µM (inactive); in the assay on OVCAR-5, > 100 µM (inactive); in the assay with PC-3, > 100 µM (inactive). For the same molecule, the GI50 in the assay on RPMI-8226, in the assay with SF-268, in the assay on SF-295, in the assay on SK-MEL-2, in the assay with SK-OV-3 and in the assay on SW-620 was > 100 µM (inactive) each time.

For the molecule `O=C(CCC(C(=O)OCc1ccccc1)C(=O)OCc1ccccc1)Nc1ccc(OCc2ccccc2)cc1`, the GI50 with A498 is 21 µM (inactive); in the assay on CCRF-CEM, 47.5 µM (inactive); with EKVX, > 100 µM (inactive); in the assay with HCC 2998, > 100 µM (inactive); with HCT-116, 14.3 µM (inactive); in the assay on HL-60 it was > 100 µM (inactive). Also, the GI50 with IGROV-1 was > 100 µM (inactive); in the assay on K562 it was > 100 µM (inactive); in the assay with LOX IMVI, > 100 µM (inactive); in the assay on MDA-N, 49.8 µM (inactive); in the assay with OVCAR-4, 47.1 µM (inactive); with OVCAR-5, > 100 µM (inactive). For the same molecule, the GI50 was 17.6 µM (inactive) with PC-3; > 100 µM (inactive) with SF-268; > 100 µM (inactive) with SF-295; > 100 µM (inactive) in the assay on SK-OV-3; > 100 µM (inactive) in the assay on SW-620.

As for `C(#C[C@@]12CCC[C@@H]1NCO2)c1ccc2c(c1)OCO2`, the GI50 is > 100 µM (inactive) with A498; 42.6 µM (inactive) in the assay on CCRF-CEM; > 100 µM (inactive) with EKVX; 17.6 µM (inactive) in the assay on HCC 2998; 24 µM (inactive) in the assay on HL-60; 45.9 µM (inactive) with IGROV-1. Also, the GI50 is 21.9 µM (inactive) in the assay on K562; 46.6 µM (inactive) with LOX IMVI; 61.5 µM (inactive) in the assay with MDA-N; 85.9 µM (inactive) in the assay on OVCAR-4; > 100 µM (inactive) in the assay on OVCAR-5; 55.8 µM (inactive) in the assay with PC-3. The GI50 in the assay with RPMI-8226 was 36.6 µM (inactive); in the assay on SF-268, 65.2 µM (inactive); with SF-295 it was 50.6 µM (inactive); with SK-MEL-2 it was > 100 µM (inactive); in the assay with SK-OV-3, > 100 µM (inactive); with SW-620, 81.3 µM (inactive).

Consider `COc1cc(O)c(C(C)=O)c(O)c1`, for which the GI50 is 80.5 µM (inactive) in the assay on A498; 37.4 µM (inactive) in the assay with EKVX; > 100 µM (inactive) in the assay on HCC 2998; 55 µM (inactive) with HCT-116; 77.3 µM (inactive) in the assay on IGROV-1; 18.7 µM (inactive) with K562. The GI50 with LOX IMVI is 75.9 µM (inactive); in the assay with MDA-N, > 100 µM (inactive); with OVCAR-4 it was 76.2 µM (inactive); in the assay with OVCAR-5, > 100 µM (inactive); with PC-3, 60.7 µM (inactive); in the assay with SF-268, 69.8 µM (inactive). Also, the GI50 was 92.5 µM (inactive) in the assay with SF-295, 78.9 µM (inactive) in the assay on SK-MEL-2, > 100 µM (inactive) with SK-OV-3 and > 100 µM (inactive) in the assay on SW-620.
